From patent US10160755B2 (Plexxikon Inc., priority 2015, dated 2018) come the findings set out here.

In one assay the target is T1, FLT3-ITD (Homo sapiens, UniProt P36888).
T1 construct: FLT3-ITD; Invitrogen #PV6190
T1 sequence (P36888 1-993): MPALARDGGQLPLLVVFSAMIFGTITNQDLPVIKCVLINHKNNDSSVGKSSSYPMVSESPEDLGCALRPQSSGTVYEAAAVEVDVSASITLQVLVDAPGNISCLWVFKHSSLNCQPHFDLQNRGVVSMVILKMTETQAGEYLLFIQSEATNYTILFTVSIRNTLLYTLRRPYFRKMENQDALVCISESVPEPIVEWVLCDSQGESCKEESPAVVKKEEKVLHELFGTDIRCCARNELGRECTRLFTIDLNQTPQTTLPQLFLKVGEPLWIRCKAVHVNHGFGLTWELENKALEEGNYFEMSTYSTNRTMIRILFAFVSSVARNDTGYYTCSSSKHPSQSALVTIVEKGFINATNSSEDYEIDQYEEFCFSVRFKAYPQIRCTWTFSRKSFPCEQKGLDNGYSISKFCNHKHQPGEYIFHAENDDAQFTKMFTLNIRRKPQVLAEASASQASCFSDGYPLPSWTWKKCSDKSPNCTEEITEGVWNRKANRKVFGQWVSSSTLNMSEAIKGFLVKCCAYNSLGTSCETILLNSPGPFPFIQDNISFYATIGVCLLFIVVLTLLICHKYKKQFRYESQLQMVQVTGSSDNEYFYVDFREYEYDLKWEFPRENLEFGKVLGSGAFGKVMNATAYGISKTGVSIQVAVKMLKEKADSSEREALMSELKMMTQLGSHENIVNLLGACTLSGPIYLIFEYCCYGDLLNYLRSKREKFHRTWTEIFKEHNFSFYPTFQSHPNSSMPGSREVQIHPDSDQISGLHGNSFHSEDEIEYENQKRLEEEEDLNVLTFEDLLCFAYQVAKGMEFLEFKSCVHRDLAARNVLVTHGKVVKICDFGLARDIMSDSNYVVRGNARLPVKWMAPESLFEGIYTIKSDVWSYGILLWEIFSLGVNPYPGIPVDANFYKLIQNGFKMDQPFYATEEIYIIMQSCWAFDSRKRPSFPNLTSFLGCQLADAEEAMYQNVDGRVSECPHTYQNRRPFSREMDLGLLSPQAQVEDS
Put plainly: FLT3-ITD biochemical kinase assay (AlphaScreen). Summed up:
(§1)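 Recombinant enzyme phosphorylated biotin-poly(Glu4-Tyr) peptide (30 nM final); ATP final 10 μM for FLT3-D835Y, 100 μM for FLT3-ITD. AlphaScreen read-out: streptavidin donor and anti-phosphotyrosine (PY20) acceptor beads, 20 and 60 min at room temperature; inhibition seen as drop in 580 nm proximity signal; IC50 determined.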

For another assay, the target named is T2, FLT3-D835Y (Homo sapiens, UniProt P36888, D835Y).
T2 construct: purchased Invitrogen PV3967
T2 sequence (P36888 27-993 D835Y): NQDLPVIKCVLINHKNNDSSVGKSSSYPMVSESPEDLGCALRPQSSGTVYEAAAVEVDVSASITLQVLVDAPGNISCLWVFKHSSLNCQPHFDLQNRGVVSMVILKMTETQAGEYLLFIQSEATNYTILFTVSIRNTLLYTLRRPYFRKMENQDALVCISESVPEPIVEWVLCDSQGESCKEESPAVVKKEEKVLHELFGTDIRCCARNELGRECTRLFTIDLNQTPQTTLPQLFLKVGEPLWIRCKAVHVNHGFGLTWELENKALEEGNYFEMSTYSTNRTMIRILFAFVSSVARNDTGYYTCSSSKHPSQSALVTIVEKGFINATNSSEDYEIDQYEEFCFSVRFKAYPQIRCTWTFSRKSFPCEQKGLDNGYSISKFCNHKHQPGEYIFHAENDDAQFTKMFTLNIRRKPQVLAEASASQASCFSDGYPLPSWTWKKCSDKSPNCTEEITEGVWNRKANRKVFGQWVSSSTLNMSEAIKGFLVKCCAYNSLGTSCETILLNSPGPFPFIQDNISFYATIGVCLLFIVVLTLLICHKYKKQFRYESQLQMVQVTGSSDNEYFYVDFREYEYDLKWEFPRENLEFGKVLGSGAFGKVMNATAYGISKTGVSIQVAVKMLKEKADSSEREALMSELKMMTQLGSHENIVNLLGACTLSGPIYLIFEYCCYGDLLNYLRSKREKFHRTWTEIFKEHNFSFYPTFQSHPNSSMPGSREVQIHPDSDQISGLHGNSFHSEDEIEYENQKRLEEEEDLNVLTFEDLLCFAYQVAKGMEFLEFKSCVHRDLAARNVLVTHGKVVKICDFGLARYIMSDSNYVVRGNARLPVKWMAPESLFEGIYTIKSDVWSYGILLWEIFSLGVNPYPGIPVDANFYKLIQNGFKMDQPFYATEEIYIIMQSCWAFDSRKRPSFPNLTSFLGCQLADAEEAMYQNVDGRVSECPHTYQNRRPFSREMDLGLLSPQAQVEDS
Nature of the assay: FLT3-D835Y biochemical kinase assay (AlphaScreen). Summed up: as §1

As to `c1cc(N2CCOCC2)ccc1-c1cnc2[nH]cc(-c3ccc4ncn(C5CCCNC5)c4c3)c2n1` (centres unmarked) [P-101, 4-[4-[7-[3-(3-piperidyl)benzimidazol-5-yl]-5H-pyrrolo[2,3-b]pyrazin-2-yl]phenyl]morpholine], the IC50 on FLT3-ITD and at FLT3-D835Y was 0.0001 to 1 µM throughout.
With `COc1ncc(-c2cnc3[nH]cc(-c4ccc5ncn(C(C)C)c5c4)c3c2)cn1` [P-269, 1-isopropyl-6-[5-(2-methoxypyrimidin-5-yl)-1H-pyrrolo[2,3-b]pyridin-3-yl]benzimidazole], the IC50 on FLT3-ITD and on FLT3-D835Y was 0.0001 to 1 µM in each case.
On to `CN(c1cccc(-c2cnc3[nH]cc(-c4ccc5ncn(C)c5c4)c3n2)c1)S(C)(=O)=O` [P-150, N-methyl-N-[3-[7-(3-methylbenzimidazol-5-yl)-5H-pyrrolo[2,3-b]pyrazin-2-yl]phenyl]methanesulfonamide], for which the IC50 against FLT3-ITD and on FLT3-D835Y was 0.0001 to 1 µM in each case.
Consider `COc1cnc2[nH]cc(-c3ccc4ncn(-c5cccc(F)c5)c4c3)c2c1` [P-128, 1-(3-fluorophenyl)-6-(5-methoxy-1H-pyrrolo[2,3-b]pyridin-3-yl)benzimidazole], for which the IC50 at FLT3-ITD and on FLT3-D835Y was 0.0001 to 1 µM throughout.
For `COc1cc(-c2cnc3[nH]cc(-c4ccc5ncn(C6CCCNC6)c5c4)c3n2)cc(OC)n1` (centres unmarked) [P-195, 2-(2,6-dimethoxy-4-pyridyl)-7-[3-(3-piperidyl)benzimidazol-5-yl]-5H-pyrrolo[2,3-b]pyrazine], the IC50 on FLT3-ITD and at FLT3-D835Y was 0.0001 to 1 µM in each case.
Take `CC(C)(C)n1cnc2ccc(-c3c[nH]c4ncc(-c5ccc(F)c(C#N)c5)nc34)cc21` [P-230, 5-[7-(3-tert-butylbenzimidazol-5-yl)-5H-pyrrolo[2,3-b]pyrazin-2-yl]-2-fluoro-benzonitrile]: the IC50 at FLT3-ITD and against FLT3-D835Y was 0.0001 to 1 µM in each case.
Consider `COc1cc(C#Cc2cnc3[nH]cc(-c4ccc5ncn(C6CCCNC6)c5c4)c3c2)ccn1` (centres unmarked) [P-241, 5-[2-(2-methoxy-4-pyridyl)ethynyl]-3-[3-(3-piperidyl)benzimidazol-5-yl]-1H-pyrrolo[2,3-b]pyridine], for which the IC50 against FLT3-ITD and against FLT3-D835Y was 0.0001 to 1 µM in each case.
On to `CC(C)(C)n1cnc2ccc(-c3c[nH]c4ncc(-c5ccc(N6CCOCC6)cc5)nc34)cc21` [P-100, 4-[4-[7-(3-tert-butylbenzimidazol-5-yl)-5H-pyrrolo[2,3-b]pyrazin-2-yl]phenyl]morpholine], for which the IC50 on FLT3-ITD and on FLT3-D835Y was 0.0001 to 1 µM throughout.
On to `N#Cc1cccc(NC(=O)c2cnc3[nH]cc(-c4ccc5ncn(C6CCCNC6)c5c4)c3c2)c1` (centres unmarked) [P-219, N-(3-cyanophenyl)-3-(1-(piperidin-3-yl)-1H-benzo[d]imidazol-6-yl)-1H-pyrrolo[2,3-b]pyridine-5-carboxamide], for which the IC50 against FLT3-ITD and against FLT3-D835Y was 0.0001 to 1 µM in each case.
Regarding `CC(C)(C)n1cnc2ccc(-c3c[nH]c4ncc(-c5ccnc(N6CCOCC6)c5)nc34)cc21` [P-228, 4-[4-[7-(3-tert-butylbenzimidazol-5-yl)-5H-pyrrolo[2,3-b]pyrazin-2-yl]-2-pyridyl]morpholine], the IC50 against FLT3-ITD and at FLT3-D835Y was 0.0001 to 1 µM in each case.
On to `COc1cnc2[nH]cc(-c3ccc4ncn(-c5ccc(Cl)cc5)c4c3)c2c1` [P-104, 1-(4-chlorophenyl)-6-(5-methoxy-1H-pyrrolo[2,3-b]pyridin-3-yl)benzimidazole], for which the IC50 at FLT3-ITD and at FLT3-D835Y was 0.0001 to 1 µM each time.
In the case of `CC(C)(C)n1cnc2ccc(-c3c[nH]c4ncc(NC(=O)c5cccc(C#N)c5)cc34)cc21` [P-235, N-[3-(3-tert-butylbenzimidazol-5-yl)-1H-pyrrolo[2,3-b]pyridin-5-yl]-3-cyano-benzamide], the IC50 against FLT3-ITD and against FLT3-D835Y was 0.0001 to 1 µM each time.
In the case of `CC(C)(C)n1cnc2ccc(-c3c[nH]c4ncc(-c5cccc(S(=O)(=O)N6CCCC6)c5)nc34)cc21` [P-229, 7-(3-tert-butylbenzimidazol-5-yl)-2-(3-pyrrolidin-1-ylsulfonylphenyl)-5H-pyrrolo[2,3-b]pyrazine], the IC50 on FLT3-ITD and against FLT3-D835Y was 0.0001 to 1 µM throughout.
Turning to `COc1cc(-c2cnc3[nH]cc(-c4ccc5ncn([C@@H]6CCCNC6)c5c4)c3n2)ccn1` [P-254, 2-(2-methoxy-4-pyridyl)-7-[3-[(3R)-3-piperidyl]benzimidazol-5-yl]-5H-pyrrolo[2,3-b]pyrazine], the IC50 against FLT3-ITD and against FLT3-D835Y was 0.0001 to 1 µM each time.
`C(#Cc1cnc2[nH]cc(-c3ccc4ncn(C5CCCNC5)c4c3)c2n1)c1ccccc1` (centres unmarked) [P-248, 2-(2-phenylethynyl)-7-[3-(3-piperidyl)benzimidazol-5-yl]-5H-pyrrolo[2,3-b]pyrazine]: the IC50 at FLT3-ITD and at FLT3-D835Y was 0.0001 to 1 µM each time.
As for `COc1cc(-c2cnc3[nH]nc(-c4ccc5ncn(C(C)(C)C)c5c4)c3c2)ccn1` [P-272, 3-(1-(tert-butyl)-1H-benzo[d]imidazol-6-yl)-5-(2-methoxypyridin-4-yl)-1H-pyrazolo[3,4-b]pyridine], the IC50 on FLT3-ITD and against FLT3-D835Y was 0.0001 to 1 µM in each case.
In the case of `COc1cc(-c2cnc3[nH]cc(-c4ccc5ncn(C(C)(C)C)c5c4)c3c2)ccn1` [P-106, 1-tert-butyl-6-[5-(2-methoxy-4-pyridyl)-1H-pyrrolo[2,3-b]pyridin-3-yl]benzimidazole], the IC50 on FLT3-ITD and against FLT3-D835Y was 0.0001 to 1 µM each time.
Regarding `COc1cnc2[nH]cc(-c3ccc4ncn(-c5cccc(C#N)c5)c4c3)c2c1` [P-135, 3-[6-(5-methoxy-1H-pyrrolo[2,3-b]pyridin-3-yl)benzimidazol-1-yl]benzonitrile], the IC50 on FLT3-ITD and against FLT3-D835Y was 0.0001 to 1 µM each time.
Consider `COc1cc(-c2cnc3[nH]cc(-c4ccc5ncn(C(C)(C)C)c5c4)c3n2)ccn1` [P-099, 7-(3-tert-butylbenzimidazol-5-yl)-2-(2-methoxy-4-pyridyl)-5H-pyrrolo[2,3-b]pyrazine], for which the IC50 on FLT3-ITD and against FLT3-D835Y was 0.0001 to 1 µM throughout.
For `COC(=O)N1CCCC(n2cnc3ccc(-c4c[nH]c5ncc(-c6ccnc(OC)c6)nc45)cc32)C1` (centres unmarked) [P-261, methyl 3-(6-(2-(2-methoxypyridin-4-yl)-5H-pyrrolo[2,3-b]pyrazin-7-yl)-1H-benzo[d]imidazol-1-yl)piperidine-1-carboxylate], the IC50 at FLT3-ITD and against FLT3-D835Y was 0.0001 to 1 µM throughout.
Regarding `COc1cc(C(=O)Nc2cnc3[nH]cc(-c4ccc5ncn(C(C)(C)C)c5c4)c3c2)ccn1` [P-245, N-[3-(3-tert-butylbenzimidazol-5-yl)-1H-pyrrolo[2,3-b]pyridin-5-yl]-2-methoxy-pyridine-4-carboxamide], the IC50 against FLT3-ITD and on FLT3-D835Y was 0.0001 to 1 µM throughout.
As to `N#Cc1cccc(C(=O)Nc2cnc3[nH]cc(-c4ccc5ncn(C6CCCNC6)c5c4)c3c2)c1` (centres unmarked) [P-236, 3-cyano-N-[3-[3-(3-piperidyl)benzimidazol-5-yl]-1H-pyrrolo[2,3-b]pyridin-5-yl]benzamide], the IC50 at FLT3-ITD and at FLT3-D835Y was 0.0001 to 1 µM each time.
